This is an account of results in PMC11820700, “Antioxidant, Enzyme-Inhibitory and Antimicrobial Activity of Underutilized Wheat and Maize Crop Residues” (Plants, 2025).

SMILES strings stand for the structures. In brackets after ≈: the same amount, converted by molar mass. Several values for one entry are separate records, joined by “and”; a condition that tells them apart may be missing. Equal entries are not always repeated. Where two headings read alike, the source gives them in different places. Marks after values point to notes of the source that are not given here.

In general, IC50 refers to the midpoint of a concentration-inhibition curve.

For experiment [1] the following is noted: cited from earlier work; for DPPH radical inhibition: concentrations 50–1000 µg/mL, ref Jeong et al. (2010) [24]. A general note: DPPH is a stable violet radical that fades when it is reduced.
The test system of experiment [2] is α-amylase. The settings on record: cited from earlier work.
The subject of experiment [3] is α-glucosidase. Conditions: cited from earlier work.
On the set-up of experiment [4]: method as in Glišić et al. (2024) [4]. Conditions: ref Glišić et al. (2024) [4]; cited from earlier work.
For experiment [5] the following is noted: cited from earlier work.
On the set-up of experiment [6]: method as in Glišić et al. (2024) [4]. Conditions: ref Glišić et al. (2024) [4]; cited from earlier work. The source holds these as a separate data set.
A short description of experiment [7]: TRC (total reducing capacity) ferric reducing power assay. The settings on record: L-ascorbic acid equivalents.
Details of experiment [8]: method as in Glišić et al. (2024) [4]. The settings on record: ref Glišić et al. (2024) [4]; cited from earlier work. The source holds these as a separate data set.
The target of experiment [9] is acetylcholinesterase (AChE). The settings on record: cited from earlier work.
Experiment [10] concerns Staphylococcus aureus ATCC 6538. As to the kind of experiment: Broth microdilution MIC. Conditions: ATCC6538, 24 h, extracts 62.5–1000, compounds 31.25–500 µg/mL tested, read-out: Minimal Inhibitory Concentrations MICs. It counts as cell-based. In general terms: Broth dilution looks for growth in wells or tubes with falling amounts of substance.
In experiment [11] the test system is Pseudomonas aeruginosa ATCC 9027. The experiment can be described thus: Broth microdilution MIC. Type of experiment: cell-based. The settings on record: ATCC9027, 24 h, read-out: Minimal Inhibitory Concentrations MICs.
Experiment [12] has as its target tyrosinase from mushroom. It counts as biochemical.
A short description of experiment [13]: FRAP ferric reducing power assay.
The subject of experiment [14] is Bacillus subtilis ATCC 6633. As to the kind of experiment: Broth microdilution MIC. The settings on record: for Minimal Inhibitory Concentrations MICs: 24 h; for MIC: ATCC6633, 24 h, read-out: Minimal Inhibitory Concentrations MICs. It counts as cell-based.
The target of experiment [15] is butyrylcholinesterase (BChE) from equine serum (Equus caballus, UniProt P81908). As to the kind of experiment: biochemical. Type of experiment: biochemical.
butyrylcholinesterase (BChE) from equine serum, sequence (P81908 whole entry, looked up): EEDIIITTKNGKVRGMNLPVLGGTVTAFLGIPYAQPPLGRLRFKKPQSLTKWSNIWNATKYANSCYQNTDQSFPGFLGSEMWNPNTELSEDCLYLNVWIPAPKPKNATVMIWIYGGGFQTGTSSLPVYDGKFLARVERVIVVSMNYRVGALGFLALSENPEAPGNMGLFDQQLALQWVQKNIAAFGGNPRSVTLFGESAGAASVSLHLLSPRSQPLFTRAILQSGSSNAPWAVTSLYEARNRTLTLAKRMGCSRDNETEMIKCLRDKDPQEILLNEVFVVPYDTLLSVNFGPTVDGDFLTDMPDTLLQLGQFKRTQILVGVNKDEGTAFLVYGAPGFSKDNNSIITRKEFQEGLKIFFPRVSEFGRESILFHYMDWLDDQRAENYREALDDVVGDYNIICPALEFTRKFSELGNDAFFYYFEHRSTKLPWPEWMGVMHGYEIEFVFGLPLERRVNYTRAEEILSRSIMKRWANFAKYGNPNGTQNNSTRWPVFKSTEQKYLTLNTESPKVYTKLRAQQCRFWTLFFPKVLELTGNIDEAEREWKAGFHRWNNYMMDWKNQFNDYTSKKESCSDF
The test system of experiment [16] is Salmonella abony NCTC 6017. As to the kind of experiment: Broth microdilution MIC. Conditions: Salmonella enterica, NCTC6017; Salmonella abony; 24 h; read-out: Minimal Inhibitory Concentrations MICs. It counts as cell-based.
In experiment [17] the test system is Candida albicans ATCC 10231. The experiment can be described thus: Broth microdilution MIC. Conditions: for Minimal Inhibitory Concentrations MICs: 48 h; for MIC: ATCC10231, 48 h, read-out: Minimal Inhibitory Concentrations MICs. Type of experiment: cell-based.
A short description of experiment [18]: DPPH free radical scavenging assay.
In experiment [19] the test system is Escherichia coli ATCC 8739. The experiment can be described thus: Broth microdilution MIC. Conditions: ATCC8739, 24 h, read-out: Minimal Inhibitory Concentrations MICs. Type of experiment: cell-based.
Experiment [20] can be described thus: ABTS free radical scavenging assay.
Experiment [21] has as its target acetylcholinesterase (AChE) from Electrophorus electricus (Electrophorus electricus, UniProt O42275). As to the kind of experiment: biochemical.
The test system of experiment [22] is Klebsiella pneumoniae NCIMB 9111. As to the kind of experiment: Broth microdilution MIC. Type of experiment: cell-based. The settings on record: NCIMB9111, 24 h, read-out: Minimal Inhibitory Concentrations MICs.
Experiment [23] concerns the target tyrosinase. Conditions: cited from earlier work.
Experiment [24] addresses T1, α-amylase from porcine pancreas (Sus scrofa, UniProt P00690).
T1 construct: purchased Merck KGaA (Darmstadt, Germany) type VI-B (catalogue number not given); host or cells: porcine pancreas
T1 sequence (P00690 16-511): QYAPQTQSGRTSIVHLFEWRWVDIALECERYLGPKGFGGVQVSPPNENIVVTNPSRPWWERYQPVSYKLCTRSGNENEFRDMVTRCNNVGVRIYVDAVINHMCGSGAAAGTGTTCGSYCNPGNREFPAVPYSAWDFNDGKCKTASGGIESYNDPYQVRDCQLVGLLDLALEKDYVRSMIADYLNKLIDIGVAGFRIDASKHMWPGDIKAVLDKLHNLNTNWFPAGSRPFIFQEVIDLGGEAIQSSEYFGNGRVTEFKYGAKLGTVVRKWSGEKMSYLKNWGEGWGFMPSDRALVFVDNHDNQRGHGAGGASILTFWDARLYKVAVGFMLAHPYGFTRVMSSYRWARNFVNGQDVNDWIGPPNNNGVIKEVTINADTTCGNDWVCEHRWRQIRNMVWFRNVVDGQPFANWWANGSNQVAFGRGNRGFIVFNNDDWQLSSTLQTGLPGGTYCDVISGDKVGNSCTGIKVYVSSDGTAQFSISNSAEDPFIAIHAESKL
The experiment can be described thus: biochemical. The settings on record: read-out: α-amilase IC50 (converted).

The subject of experiment [25] is Enterococcus faecalis ATCC 29212. The experiment can be described thus: Broth microdilution MIC. Type of experiment: cell-based. Conditions: for Minimal Inhibitory Concentrations MICs: 24 h; for MIC: ATCC29212, 24 h, read-out: Minimal Inhibitory Concentrations MICs.
In experiment [26] the test system is Gram-negative bacteria. The arrangement: method as in Lou et al. (2012) [44]. The settings on record: ref Lou et al. (2012) [44]; cited from earlier work.
Experiment [27] relates to clinical isolates of both Gram-positive and Gram-negative bacteria. More on the design: method as in Alves et al. (2013) [45]. The settings on record: ref Alves et al. (2013) [45]; cited from earlier work.
Experiment [28] concerns three tested Gram-positive bacteria. More on the design: method as in Lou et al. (2012) [44]. Conditions: ref Lou et al. (2012) [44]; cited from earlier work.
Where [29] appears, read: isolated from medicinal rice (Oryza sativa L.), ref Mohanlal et al. (2011) [7].
Where [30] appears, read: mg/mL figure given in parentheses beside mM, ref Jeong et al. (2012) [29].

acetylcholinesterase (AChE) from Electrophorus electricus, sequence (O42275 24-633 limits assumed): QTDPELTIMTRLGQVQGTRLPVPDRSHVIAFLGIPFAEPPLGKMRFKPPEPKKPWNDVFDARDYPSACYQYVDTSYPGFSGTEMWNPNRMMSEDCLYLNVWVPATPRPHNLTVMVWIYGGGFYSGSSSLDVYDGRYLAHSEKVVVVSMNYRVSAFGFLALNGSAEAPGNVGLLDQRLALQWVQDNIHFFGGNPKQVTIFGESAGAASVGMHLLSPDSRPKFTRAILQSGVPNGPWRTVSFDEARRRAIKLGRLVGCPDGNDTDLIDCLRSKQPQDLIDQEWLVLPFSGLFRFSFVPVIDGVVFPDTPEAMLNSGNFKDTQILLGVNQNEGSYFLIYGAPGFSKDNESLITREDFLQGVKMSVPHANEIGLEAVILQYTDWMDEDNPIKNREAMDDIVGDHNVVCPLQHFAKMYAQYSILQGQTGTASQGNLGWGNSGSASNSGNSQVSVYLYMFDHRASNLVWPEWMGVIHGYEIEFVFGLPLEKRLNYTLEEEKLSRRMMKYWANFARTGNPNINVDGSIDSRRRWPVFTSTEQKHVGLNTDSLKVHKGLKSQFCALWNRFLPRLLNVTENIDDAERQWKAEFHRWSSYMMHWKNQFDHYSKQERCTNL

For `COc1cc(C(O)C(CO)Oc2c(OC)cc(-c3cc(=O)c4c(O)cc(O)cc4o3)cc2OC)ccc1O` (stereo not drawn) [salcolin A, tricin 4′-O-(threo-β-guaiacylglyceryl)ether], in experiment [1] (setting [29]), the “DPPH IC50” value is 208.1 mg/L.

`C[C@H]1O[C@H](O[C@H]2[C@H](O)[C@@H](O)[C@@H](O[C@H]3[C@H](O)[C@@H](O)C(O)O[C@@H]3CO)O[C@@H]2CO)[C@H](O)[C@@H](O)[C@@H]1N[C@H]1C=C(CO)[C@@H](O)[C@H](O)[C@H]1O` (stereo partly shown) [ACB, acarbose, reference compound]: the α-amylase inhibition in experiment [2] (at 1.5 mg/mL, ref [29]) is given as 59.3%. The α-glucosidase inhibition in [3] (at 0.44 mg/mL, ref [33]) was 62%; in experiment [3] (at 1.5 mg/mL, ref [29]), 70.2%.

Regarding `Cc1cc(C(C)(C)C)c(O)c(C(C)(C)C)c1` [BHT, butylated hydroxytoluene], the “ABTS IC50” value in experiment [4] is 0.040 ± 0.002 ^e mg/mL; in [5] (ref Yang et al. (2024) [20]), 140 mg/L. Further, the ABTS radicals scavenged in [5] (at 0.2 mg/mL, ref [27]) is on record as 50.32%. The “DPPH IC50” value was 0.038 ± 0.001 ^e mg/mL in experiment [6]; 50 mg/L in [1] (methanol extracts from unfermented straw, ref Đorđević et al. (2019) [12]); 150 mg/L in experiment [1] (ref Yang et al. (2024) [20]). Moreover, in experiment [1] (at 0.2 mg/mL, ref [27]), the DPPH radicals scavenged is 47.32%. The DPPH radical inhibition in [1] is 73.9–90.7%. In addition, the TRC in experiment [7] is given as 615.02 ± 38.87 ^c mg L-AAE/g. Moreover, the FRAP in experiment [8] was 0.41 µmol Fe^2+/g and 0.41 ± 0.03 ^c µmol Fe^2+/g and 0.41 ± 0.03 ^d µmol Fe^2+/g.

For `COc1ccc2cc3[n+](cc2c1OC)CCc1cc2c(cc1-3)OCO2` [berberine, reference compound], the “AChE IC50” value in [9] (ref Sim et al. (2014) [39]) was 1.5 mg/L.

For `COc1cc(-c2cc(=O)c3c(O)cc(O)cc3o2)cc(OC)c1O` [TRN, 5,7,4′-trihydroxy-3′,5′-dimethoxyflavone], the MIC in [10] is 62.5 mg/L (≈ 189 µM); in [11], over 500 mg/L; in experiment [14] it was 31.2 mg/L (≈ 94.6 µM); in experiment [16], over 500 mg/L; in experiment [17], 250 mg/L (≈ 757 µM); in experiment [19], over 500 mg/L. In addition, the results for the MIC in [22] and in experiment [25] were over 500 mg/L and 31.2 mg/L (≈ 94.6 µM), respectively. In [12], the “Tyr IC50” value is “did not exhibit inhibitory activity within the tested concentration range”. In addition, the FRAP in [13] was 0.34 ± 0.01 ^d µmol Fe^2+/g. Also, the “Minimal Inhibitory Concentrations MICs” value in experiment [14] stood at 31.25 µg/mL; in experiment [17] it was 250 µg/mL; in experiment [25], 31.25 µg/mL. The figures for the IC50 in [15], in experiment [21] and in experiment [24] were 1.67 mM, 8.72 mM and 5.84 mM, respectively. Also, the “DPPH IC50” value is 1.71 ± 0.15 ^b mg/mL in [18] and 90.39 mg/L in [1] (setting [29]). The “ABTS IC50” value in experiment [20] was 0.46 ± 0.01 ^a mg/mL. The “tyrosinase IC50” value in experiment [23] (ref [38]) was 269.46 mg/L. Besides, in experiment [7], the TRC is 312.08 ± 12.44 ^d mg L-AAE/g.

As for `O=c1cc(-c2cc(O)c(O)c(O)c2)oc2cc(O)cc(O)c12` [tricetin], the “AChE IC50” value in [9] (ref Kuppusamy et al. (2017) [40]) is 18.28 mg/L.

For the molecule `O=C(O)CC1C(=O)Nc2cccc(O)c21` (stereo not shown) [tasselin A, 4-hydroxy-1-oxindole-3-acetic acid], in experiment [23] (ref Wille and Berhow (2011) [37]), the IC50 is 0.75 mM.

On to `O=C(O)/C=C/c1ccc(O)cc1` [p-CA, p-coumaric acid], for which the MIC in experiment [10] was 62.5 mg/L (≈ 381 µM); in experiment [26], 10 to 80 mg/L; in [11], over 500 mg/L; in experiment [27] it was at least 1000 mg/L; in experiment [14], 31.2 mg/L (≈ 190 µM); in experiment [28], 20 mg/L (≈ 122 µM). For the same molecule, the MIC in experiment [16] is over 500 mg/L; in experiment [17] it was 250 mg/L (≈ 1520 µM); in experiment [19] it was over 500 mg/L; in experiment [22], over 500 mg/L; in [25] it was 31.2 mg/L (≈ 190 µM). In experiment [13], the FRAP is 0.92 ± 0.02 ^c µmol Fe^2+/g. Also, the “Minimal Inhibitory Concentrations MICs” value in [14] amounted to 31.25 µg/mL; in experiment [17], 250 µg/mL; in experiment [25], 31.25 µg/mL. Further, the “α-amylase IC50” value in [2] (setting [30]) was over 4920 mg/L. The IC50 in experiment [2] (ref Jeong et al. (2012) [29]) was over 30 mM; in [3] (ref Jeong et al. (2012) [29]), over 30 mM; in experiment [21] it was 63.3 mM; in [24] it was 167 mM. Moreover, in experiment [18], the “DPPH IC50” value is reported as 2.96 ± 0.16 ^a mg/mL. The “ABTS IC50” value in [20] is listed as 0.0256 ± 0.0012 ^c mg/mL. Moreover, the “α-glucosidase IC50” value is over 4920 mg/L in [3] (setting [30]); 90.8 mg/L in experiment [3] (ref Nile and Park (2014) [34]). In addition, in experiment [1], the DPPH radical inhibition is listed as 10.3–26.9%. Further, the figures for the TRC in experiment [7] and in [7] (listed as p-Coumaric acid) were 1810.89 ± 116.14 ^b mg L-AAE/g and 1810.89 mg L-AAE/g, respectively.

On to `O=c1c(O)c(-c2ccc(O)c(O)c2)oc2cc(O)cc(O)c12` [quercetin], for which the “DPPH IC50” value in experiment [1] (setting [29]) was 42.98 mg/L.

`COc1cc([C@H](O)[C@H](CO)Oc2c(OC)cc(-c3cc(=O)c4c(O)cc(O)cc4o3)cc2OC)ccc1O` [salcolin B, tricin 4′-O-(erythro-β-guaiacylglyceryl)ether]: in [1] (setting [29]), the “DPPH IC50” value is 352.04 mg/L.

Regarding `O=C1O[C@H]([C@@H](O)CO)C(O)=C1O` [L-AA, L-ascorbic acid], the “ABTS IC50” value in experiment [4] is 0.0316 ± 0.0003 ^e mg/mL. The “DPPH IC50” value in experiment [6] is 0.0057 ± 0.0003 ^f mg/mL; in experiment [1] (ref Barnawi et al. (2023) [28]), 2.51 mg/L; in [1] (ref Dewi et al. (2021) [15]) it was 3.55 mg/L; in [1] (ref Elemosho et al. (2021) [26]) it was 4630 mg/L. Also, the FRAP in experiment [8] was 1.618 ± 0.004 ^e µmol Fe^2+/g and 1.618 ± 0.004 ^b µmol Fe^2+/g.
